Assay results reported in a melting point compilation (Tetko et al.; mined from patent text by program, amines drawn as free bases though some values may be those of a salt).

melting point [°C]	SMILES
199 to 201	COC(=O)c1cn2c(=O)c(Br)c(C)nc2s1
204 to 205	COC(=O)/C(=N\O)c1csc(NC(c2ccccc2)(c2ccccc2)c2ccccc2)n1
88.5	CC(CCCC(C)C1CCC2C3CC=C4C(C)(C)C(O)CCC4(C)C3CCC12C)CO[Si](C)(C)C(C)(C)C (configuration not stated)
299	O=C(Oc1ccccc1)N1CCCc2nc3ccccc3c(O)c2C1
255 to 256	CSc1ccc(-c2coc3ccc(-c4nnc(N)o4)cc23)cc1
164 to 168	COc1ccc2c(c1)CCC1C2CCC2(C)C=CCC12 (configuration not stated)
152 to 154	Cn1cc(-c2cccc(Br)c2)c(=O)c(-c2ccc(Cl)c(Cl)c2)c1
251 to 253	CC(C)n1nc(-c2c(-c3ccccc3)nc(N)nc2N2CCOCC2)ccc1=O
277 to 279	O=C(O)c1ccc2cc(-c3ccc(OCCCO)c(C45CC6CC(CC(C6)C4)C5)c3)ccc2c1
238	Cc1cc(C#N)cc(C(=O)Nc2ccnc(Cl)c2)n1
208 to 210	CCCCCCCCc1ccc(N(c2ccc(CCCCCCCC)cc2)C2(c3ccc(N(C)C)cc3)OC(=O)c3cc(N(C)C)ccc32)cc1 (configuration not stated)
67 to 71	COc1ccc2cccc(Cc3ccccc3)c2c1O
108 to 109	CCSc1ccc(-c2coc3ccc(-c4nnc(C)o4)cc23)c(Cl)c1
159 to 160	COc1ccc([C@@H]2Sc3ccccc3N(CCN(C)C)C(=O)[C@@H]2OC(=O)c2cc(Cl)ccc2[N+](=O)[O-])cc1
130	COc1ccc(S(=O)(=O)C2(C(=O)O)CCN(Cc3cccc(OC)c3)CC2)cc1
59 to 60	CC1(C)C=C(CCl)CS1(=O)=O
305 to 308	Nc1cccc2c1C(=O)c1c(O)cccc1C2=O
> 290	CC(C)c1[nH]c(=O)[nH]c1-c1cc(C(C)(C)C)c(O)c(C(C)(C)C)c1
85 to 86	COC(=O)CS(=O)(=O)CCCC=C1SC=CS1

melting point [°C]	SMILES
69 to 70	CCC1Nc2cc(F)c(F)c(F)c2-n2cccc21 (configuration not stated)
120 to 122	O=C1Cc2cc(NCCCc3ccccc3)ccc2N1
129 to 131	CCCOC(=O)c1c(CN2CCCCC2)nc2cc(OC)c(OC)cc2c1-c1ccc(OC)c(OC)c1
84 to 87	COCCOc1cc(-n2c(=O)cc(C(F)(F)F)n(C)c2=O)c(F)cc1Cl
> 250	O=C1CN(c2ccc(OC(F)(F)C(F)F)cc2)C(=O)CN1
183 to 184	COc1nnc2n1C=Cc1ccccc1C2c1ccccc1 (configuration not stated)
133 to 134	O=S(=O)(Oc1ccc(C(c2ccc(OS(=O)(=O)c3ccccc3)cc2)(C(F)(F)F)C(F)(F)F)cc1)c1ccccc1
86 to 88	COc1nc(OC)c(C(C)C)c(C(=O)c2cc(C)cc(C(OC)OC)c2)n1
164 to 168	CC(=O)Nc1nc(N(C(C)=O)C(C)=O)c(CCC=O)c(=O)[nH]1
129 to 130	CN(C)C(=O)Nc1ccc(OCCCC(=O)c2ccccc2)c(Cl)c1
116 to 118	c1cc(Oc2ccc3c(c2)CCN3)ccn1
253 to 255	O=C(O)c1cn(CCO)c2c(F)c(N3CCn4ccnc4C3)c(F)cc2c1=O
190 to 192	O=Cc1ccc(CN2C(=O)c3ccccc3C2=O)c2ccccc12
208 to 209	CNC1([C@@H]2CCN(c3c(F)cc4c(=O)c(C(=O)O)cn([C@@H]5C[C@@H]5F)c4c3OC)C2)CC1
210 to 214	CN1C(C)(C)CC(O)(CN2C(=O)C3(COc4cc5c(cc43)OCO5)c3ccccc32)CC1(C)C (configuration not stated)
210 to 212	CCOC(=O)c1cn(NCC=O)c2nc(C)ccc2c1=O
156 to 158	CC(C)(C)C(=O)COc1nn(CC=C(Cl)Cl)c(-c2ccc(S(C)(=O)=O)cc2)c1-c1ccc(F)cc1
207 to 209	Cc1c(Br)cc(Br)c(NC(=O)CBr)c1Br
142 to 146	COc1cccc(C(=O)O)c1I

melting point [°C]	SMILES
137	CC(C)(C)c1nnc(N=C2SC[C@@H]3Cc4ccccc4CN23)s1
137 to 140	Cc1ccc(C(=O)C(=NN)c2ccc(C)cc2)cc1
206 to 208	CSc1ccccc1-n1ncc(-c2ccc(S(C)(=O)=O)cc2)c(-c2ccc(F)cc2)c1=O
310 to 320	O=C1NC(N2CCCCCC2)=N/C1=C\c1c[nH]c2ncc(Cl)cc12
98.5 to 101	Cn1nnnc1SCCCS(=O)(=O)c1ccccn1
129 to 130	Cc1nc(C(C)(O)c2cccs2)sc1C (configuration not stated)
129 to 131	N#CC(c1ccccc1)(c1ccccc1)[C@H]1CCCN(CCc2ccc(Cl)cc2)C1
228 to 235	O=C1NC(=O)c2c1c(-c1c(O)cccc1Cl)cc1[nH]c3ccc(O)cc3c21
156 to 157	O=C1CCN(Cc2ccc(O)cc2)CC1C1c2ccccc2C=Cc2ccccc21 (configuration not stated)
242 to 245	CN(C)c1ccc(-c2cc(=O)c3ccc(O)c(O)c3o2)cc1
157 to 160	O=C(O)CCn1ccc2cc(OCc3ccc4ccccc4n3)ccc21
134 to 135	COc1cc2c(cc1OCc1ccccc1)CCCN(Cc1cc(OC)c(OC)c(OC)c1)C2=O
86	CCc1cc2cc([N+](=O)[O-])ccc2o1
132 to 136	CCOC(=O)c1ccc(O)cc1SC
> 280	Cc1ccc2c(c1)c1cc(-c3ccc(O)cc3)c(=O)n(C)c1n2C
281 to 283	Cc1[nH]n(C2CCCC2O)c2nc(-c3ccncc3)nc(=O)c1-2 (configuration not stated)
101	CC(=O)CC(=O)Nc1cccc(OC(C)=O)c1
230 to 231	COC(=O)Nc1nc(-c2ccccc2)c(-c2nc3ccccc3c(=O)n2-c2cccc(Cl)c2)s1

The next lines start with the compound.

SMILES	melting point [°C]
COC(=O)CCCc1cc2nc(C(F)(F)F)ccc2n1S(=O)(=O)c1ccc(C(C)C)cc1	78
CNC1=NS(=O)(=O)N=C1NCCSCc1csc(CN(C)C)n1	144 to 148
CS(=O)(=O)c1ccc(-c2cnn(-c3ccc(F)c(F)c3)c(=O)c2Cc2ccc(F)cc2)cc1	157 to 159
CCCc1c(OCCCCCC(=O)O)ccc(C(C)=O)c1O	62 to 64
CCCn1c(=O)c2c(nc(/C=C/c3ccc(OC(C)=O)c(OC(C)=O)c3)n2C)n(CCC)c1=O	229 to 230
CC(=O)Oc1ccc(-c2nc3n(c2-c2ccc(OC(C)=O)cc2)CCS3)cc1	172 to 173
Cc1cc(C)cc(-c2cc3cnc(N)nc3nc2NC(=O)NC(C)(C)C)c1	180 to 182
CCSC(C)(C)C(=O)C(C(=O)Nc1cc(NC(=O)CCCOc2ccc(C(C)(C)CC)cc2C(C)(C)CC)ccc1OC)N1C(=O)OC(C)(C)C1=O (configuration not stated)	155 to 156
CC1=NC(NC(=O)Nc2cccc(C#N)c2)C(=O)N(CC(=O)C(C)(C)C)c2ccccc21 (configuration not stated)	246 to 247
COCCc1nc2c(N)nc3ccccc3c2n1CCCCNC(=O)c1ccc(-n2cccc2)nc1	77 to 80
COc1ccc2cc3c(c(-c4ccc(OC(F)(F)F)cc4)c2c1)CNC3=O	277 to 280
CCOC(=O)c1cc(-n2c(OCC)nc(C(F)(F)F)cc2=O)c(F)cc1Cl	94 to 96
Cc1cc(-c2ccc(F)cc2)nc(O)n1	265 to 268
COC(=O)c1ccc2oc3c(c(=O)c2c1)CCC3=Cc1ccc(C)cc1C	212 to 214
CCOc1cc2c(-c3ccnc(Cl)c3)c(CO)c(CO)cc2cc1OC	123 to 126
OCc1cn(-c2ccc3ccccc3n2)cn1	136 to 137
CN(Cc1cc2c3c(c1)c(=O)c(C(=O)NCc1ccc(Cl)cc1)cn3CC(=O)N2C)C[C@@H](O)c1ccco1	119 to 120
N#Cc1nn(-c2c(Cl)cc(C(F)(F)F)cc2Cl)cc1C1(C(F)(F)F)CC1	141
CC1CCC(=NN(C)c2ccccc2)c2ncc(C(=O)O)c(=O)n21 (configuration not stated)	196 to 198
NC(CCCl)C(=O)c1ccccc1 (configuration not stated)	44 to 46
CC1(C)CCC(C)(C)c2cc(-c3cc(-c4ccccc4O)ccc3C(=O)O)ccc21	264 to 267

SMILES	melting point [°C]
N#CC1=C(c2ccccc2)Oc2ccccc2O1	85 to 86
CCOC(=O)C(O)c1ccc(C2CCCCC2)cc1 (configuration not stated)	85 to 86
O=C(O)Cc1c(Cl)nc(-c2ccc([N+](=O)[O-])cc2)n1Cc1ccccc1	180 to 183
COC(=O)c1ccc(-c2nnc(-c3ccc(C(F)(F)F)cc3)o2)c([N+](=O)[O-])c1	173 to 174
CC(=O)CN1C(=O)c2ccc3ccccc3c2S1(=O)=O	163 to 165
C[C@@H](n1cc(-c2ccccc2)nn1)[C@](O)(Cn1cncn1)c1ccc(F)cc1F	148 to 149
CCN(CC)CCN1C(=O)C(O)C(c2ccc(OC)cc2)Sc2c1ccc1ccccc21 (configuration not stated)	124 to 125
O=C(O)[C@H](CSc1ccccc1[N+](=O)[O-])N1C(=O)c2ccccc2C1=O	220 to 222
CN(c1cccc2cc(C3=NCC(C)(C(N)=O)S3)[nH]c12)S(=O)(=O)c1cccs1 (configuration not stated)	248 to 249
O=c1[nH]c(N[N+](=O)[O-])ncc1Cc1cccnc1	214 to 216
Cc1c(SCCCN2CCN(Cc3ccc(Cl)s3)CC2)ccnc1CSc1nc2cc(F)c(F)cc2[nH]1	79 to 82
CCN(CC)C(=O)n1ccc(S(=O)(=O)c2ccc(C)c(C)c2)n1	85 to 86
Nc1n[nH]c2cc(CN3CCN(S(=O)(=O)c4cc5ccc(Cl)cc5s4)CC3=O)ccc12	274 to 276
CCOC(=O)c1c(C(C)C)nc(C(C)C)c(C(=O)OCC)c1-c1ccc(OCc2ccccc2)cc1	87
Cc1nnc2n1-c1ccc(N)cc1C(c1ccccc1F)=NC2(C)C	294
CC1(C)COC(c2ccc(F)cc2Cl)=N1	138 to 139
CC1(C)Oc2ccc(C#N)cc2[C@@H](NNC(=O)c2ccccc2)[C@@H]1O (relative stereo)	197 to 199
CCCCCCCCCCCCCCCCCCNC(=O)CC[Si](OCC)(OCC)OCC	50 to 52
CN1C(=O)N(c2ccc(C#N)c(C(F)(F)F)c2)C(=O)C1(C)C	158
COC(=O)C(C)(C)CCCOc1c(C)cc(OC(=O)C(C)(C)C)c(C)c1C	46 to 47
